# Assay results taken from US6998410B2, “Compositions” (Altana Pharma AG, priority 1997, dated 2006).
# System: Adult Sprague Dawley rats lavaged until their endogenous lung surfactant is washed out
# Assay: Arterial oxygen partial pressure (PaO2) in lung-lavaged, ventilated rats (animal model of ARDS) after intratracheal instillation
# Type: in vivo, rat (Sprague Dawley)
# Details: for PaO2, average value (± standard deviation): Compound A 600 μg/kg alone
# Excerpt: Adult Sprague Dawley rats are artificially ventilated with pure oxygen and a positive end-expiratory pressure (PEEP; in order to guarantee oxygenation of the rats) and lavaged until their endogenous lung surfactant is washed out (D. Häfner, U. Kilian and R. Beume: Comparison of four lung surfactant preparations in an animal model of adult respiratory distress syndrome (ARDS). Am. Rev. Respir. Dis. 1993, 147:A719; D. Häfner, P. -G. Germann, D. Hauschke, Pulmonary Pharmacology (1994) 7, 319–332). This is manifested by the fact that in the animals the preliminary values of the arterial oxygen partial pressure (PaO2) of 500–550 mm Hg (in the case of pure oxygen ventilation and PEEP) decrease to values of 50–110 mm Hg. Animals of the control group, which are not treated with lung surfactant, remain with their PaO2 at these low values throughout the observation period. Sixty minutes after the PaO2 has decreased to these values, lung surfactant or lung surfactant together with N-(3,5-dichloropyrid-4-yl)-3-cyclopropylmethoxy-4-difluoromethoxybenzamide is instilled intratracheally. The blood gases are determined 30 and 120 minutes after instillation.
# In Table 1 and Table 2 which follow, in line A the average values (±standard deviation) of the PaO2 are indicated in mm Hg for the time 30 minutes (constant PEEP of 8 cm H2O) after intratracheal instillation and in line B 120 minutes after intratracheal instillation. […] This follows by comparison with the untreated control animals. […] It is therefore possible to save a part of the very expensive lung surfactant, or else to obtain an increased action of each individual component.
smiles,measurement,setting,value
"O=C(Nc1c(Cl)cncc1Cl)c1ccc(OC(F)F)c(OCC2CC2)c1 [Compound A, N-(3,5-dichloropyrid-4-yl)-3-cyclopropylmethoxy-4-difluoromethoxybenzamide]","PaO2, average value (± standard deviation)",line A: 30 minutes after intratracheal instillation (constant PEEP of 8 cm H2O),59 ± 12 mm Hg
same,"PaO2, average value (± standard deviation)",line B: 120 minutes after intratracheal instillation,75 ± 24 mm Hg
same,Influence on the PaO2 (in words),"sole administration, by comparison with the untreated control animals",no influence on the PaO2
